The test system of the experiment is Daudi cells. Kind of experiment: Inhibition of human Daudi lymphoma cell proliferation (Cell-Titer Glo). Conditions: 3 days incubation, read-out: Anti-Proliferative Activity Against Daudi cells IC50. Type of experiment: cell-based. As to the method: Introduction of the experimental principle: After the RAD51 inhibitor to be tested was co-incubated with cancer cells for a period of time, the influence of the test compound on cell proliferation was measured by a method for counting cell proliferation based on the quantitative measurement of intracellular ATP content.
Materials and Cells: Daudi cells were purchased from ATCC; fetal bovine serum, 1640 medium and penicillin-streptomycin were purchased from Gibco Inc. (U.S.), 96-well plates were purchased from Corning Inc. (U.S.), and Cell-Titer Glo reagent was purchased from Promega Corporation (U.S.).
Cell culture: Daudi cells were cultured in 1640 culture medium containing 10% fetal bovine serum and 1% penicillin-streptomycin at 37° C. in an atmosphere containing 5% CO2. Cells in logarithmic growth phase could be used for experiments.
Assay of cell proliferation and viability: Cell-Titer Glo reagent was used to measure the inhibitory activities of the compounds on the proliferation of Daudi cell strain. The concentration of cells was adjusted, and the cells were seeded in a 96-well plate and cultured at 37° C. in an atmosphere containing 5% CO2 for 24 hours. The powder of the compound was dissolved in 100% DMSO to form a 10 mM solution. 10 μl of the solution of the compound was aspirated and transferred into a 96-well compound plate containing 20 μl of DMSO solution for 3-fold dilution and was then formulated into 10 serial dilutions. Thereafter, 2 μl of the solution of the compound was aspirated from the corresponding well and added correspondingly into a 96-well intermediate compound dilution plate containing 78 μl of complete culture medium in each well. The resultant was mixed well, and the plate was centrifuged at 1000 rpm for 1 minute. Finally, 10 μl of the solution of the compound was aspirated from the corresponding well of the 96-well intermediate compound dilution plate, and transferred into the corresponding well of the cell culture plate containing 90 μl of complete culture medium. The final concentration of DMSO was 0.25%. After the addition of the compound, the cells were continued to be incubated for 3 days at 37° C. in an atmosphere containing 5% CO2. Cell-Titer Glo reagent was added to measure cell viability.
% Compound inhibition was calculated and IC50 of the compound was filled;
% Compound inhibition=1−100%×(Signal−Bottom)/(Top−Bottom)

Where two headings read alike, the source gives them in different places.

What is called IC50 is the concentration needed to halve the response being measured. For `CC(C)OC(=O)N[C@H]1CC[C@H](c2ncc(-c3ccc(-n4cccn4)cc3S(=O)(=O)C3CC3)s2)CC1` [Example 87, isopropyl trans-N-[4-[5-(2-cyclopropylsulfonyl-4-pyrazol-1-yl-phenyl)thiazol-2-yl]cyclohexyl]carbamate], for the setting “Homo sapiens, 72 h”, the IC50 amounted to 0.29 µM.

As for `Cc1cc(Nc2ccc(-c3cnc(C45CCC(NC(=O)OC(C)C)(CC4)CC5)s3)c(S(=O)(=O)C3CC3)c2)n[nH]1` [Example 60], the IC50 (Homo sapiens, 72 h) came to 0.004 µM.

For `Cc1cc(Nc2ccc(-c3cnc(N4CC5C(C4)C5NC(=O)OC(C)C)s3)c(S(=O)(=O)C3CC3)c2)n[nH]1` (centres unmarked) [Example 109, isopropyl (3-(5-(2-(cyclopropylsulfonyl)-4-((5-methyl-1H-pyrazol-3-yl)amino)phenyl)thiazol-2-yl)-3-azabicyclo[3.1.0]hexanone-6-yl)carbamate], the half-inhibitory concentration (IC50) (Homo sapiens, 72 h) worked out at 0.076 µM.

Turning to `CC(C)OC(=O)Nc1ccc(-c2ncc(-c3ccc(Nc4cn(C)nn4)cc3S(=O)(=O)C3CC3)s2)cc1` [Example 59], the half-maximal inhibitory concentration (IC50) (Homo sapiens, 72 h) is 0.125 µM.

On to `CC(C)OC(=O)NC12CCC(c3ncc(-c4ccc(Nc5cn(C)nn5)cc4S(=O)(=O)C4CC4)s3)(CC1)CC2` [Example 58], for which the concentration for half-maximal inhibition (IC50) (Homo sapiens, 72 h) turned out to be 0.027 µM.

As for `Cc1cc(Nc2ccc(-c3cnc([C@H]4CC[C@H](NC(=O)OC(C)C)CC4)s3)c(S(=O)(=O)C3CC3)c2)n(C)n1` [Example 116, isopropyl trans-(4-(5-(2-(cyclopropylsulfonyl)-4-((1,3-dimethyl-1H-pyrazol-5-yl)amino)phenyl)thiazol-2-yl)cyclohexyl)carbamate], for the setting “Homo sapiens, 72 h”, the IC50 worked out at 0.004 µM.

With `CN=S(=O)(c1cc(NC(=O)OC(C)C)ccc1-c1cnc(C2CCC(NC(=O)OC(C)C)CC2)s1)C(C)C` (stereo not drawn) [Example 20, isopropyl trans-N-[4-[2-[4-(isopropoxycarbonylamino)cyclohexyl]thiazol-5-yl]-3-(isopropyl-N-methyl-sulfonimidoyl)phenyl]carbamate], under “Homo sapiens, 72 h”, the 50% inhibitory concentration (IC50) came to 2.75 µM.

In the case of `COc1ccc(-c2ccc(-c3cnc([C@H]4CC[C@H](NC(=O)OC(C)C)CC4)s3)c([S@](=N)(=O)C3CC3)c2)cn1` (stereo in doubt) [Example 94-1, isopropyl trans-((4-(5-(2-((R)-cyclopropanesulfonimidoyl))-4-(6-methoxypyridin-3-yl)phenyl)thiazol-2-yl)cyclohexyl)carbamate], the IC50 worked out at 0.06 µM.

`CC(C)OC(=O)N[C@H]1CC[C@H](c2ncc(-c3ccc(N4CCCO4)cc3S(=O)(=O)C3CC3)s2)CC1` [Example 73, isopropyl trans-N-[4-[5-(2-cyclopropylsulfonyl-4-isoxazolidin-2-yl-phenyl)thiazol-2-yl]cyclohexyl]carbamate]: the IC50 (Homo sapiens, 72 h) was determined as 0.2 µM.

In the case of `CC(C)OC(=O)N[C@H]1CC[C@H](c2ncc(-c3ccc(Nc4ccc[nH]c4=O)cc3S(=O)(=O)C(C)C)s2)CC1` [Example 35, isopropyl trans-N-[4-[5-[2-isopropylsulfonyl-4-[(2-oxo-1H-pyridin-3-yl)amino]phenyl]thiazol-2-yl]cyclohexyl]carbamate], under “Homo sapiens, 72 h”, the IC50 was found to be 4.29 µM.

Regarding `COc1ccc(Nc2ccc(-c3cnc([C@H]4CC[C@H](NC(=O)OC(C)C)CC4)s3)c(S(=O)(=O)C3CC3)c2)nc1` [Example 78, isopropyl trans-(4-(5-(2-(cyclopropylsulfonyl)-4-((5-methoxypyridin-2-yl)amino)phenyl)thiazol-2-yl)cyclohexyl)carbamate], the half-maximal inhibitory concentration (IC50) (Homo sapiens, 72 h) came to 0.004 µM.

`Cc1cc(Nc2ccc(-c3nc4c(s3)CCN(C(=O)OC(C)C)CC4)c(S(=O)(=O)C3CC3)c2)n[nH]1` [Example 108, isopropyl 2-(2-(cyclopropylsulfonyl)-4-((5-methyl-1H-pyrazol-3-yl)amino)phenyl)-7,8-dihydro-4H-thiazolo[4,5-d]aza-6(5H)-carboxylate]: the IC50 (Homo sapiens, 72 h) is 0.468 µM.

As for `CC(C)OC(=O)N[C@H]1CC[C@H](c2ncc(-c3ccc(Nc4ccon4)cc3S(=O)(=O)NC(C)(C)C)s2)CC1` [Example 30, isopropyl trans-(4-(5-(2-(N-(tert-butyl)sulfamoyl)-4-(isoxazol-3-ylamino)phenyl)thiazol-2-yl)cyclohexyl)carbamate], the IC50 (Homo sapiens, 72 h) amounted to 2.65 µM.

In the case of `CC(C)OC(=O)N[C@H]1CC[C@H](c2ncc(-c3ccc(Nc4ccc(=O)[nH]c4)cc3S(=O)(=O)C3CC3)s2)CC1` [Example 96, isopropyl trans-(4-(5-(2-(cyclopropylsulfonyl)-4-((6-oxo-1,6-dihydropyridin-3-yl)amino)phenyl)thiazol-2-yl)cyclohexyl)carbamate], the IC50 (Homo sapiens, 72 h) worked out at 0.14 µM.

As for `Cc1cc(Nc2ccc(-c3cnc(C4CCC(NC(=O)OC(C)C)CC4)s3)c([S+]([O-])C3CC3)c2)n[nH]1` (stereo not drawn) [Example 52, isopropyl trans-N-[4-[5-[2-cyclopropylsulfinyl]-4-[(5-methyl-1H-pyrazol-3-yl)amino]phenyl]thiazol-2-yl]cyclohexyl]carbamate], the IC50 (Homo sapiens, 72 h) was found to be 0.08 µM.

`CC(C)OC(=O)N[C@H]1CC[C@H](c2ncc(-c3ccc(Nc4ccc(F)cn4)cc3S(=O)(=O)C3COC3)s2)CC1` [Example 112, isopropyl trans-N-[4-[5-[4-[(5-fluoro-2-pyridyl)amino]-2-(oxetan-3-ylsulfonyl)phenyl]thiazol-2-yl]cyclohexyl]carbamate]: for the setting “Homo sapiens, 72 h”, the IC50 is 0.017 µM.

As for `CC(C)OC(=O)NC1CCC(c2ncc(-c3ccc(Nc4ncncn4)cc3S(=O)(=O)C3CC3)s2)CC1` (stereo not drawn) [Example 80, isopropyl trans-N-[4-[5-[2-cyclopropylsulfonyl]-4-(1,3,5-triazin-2-ylamino)phenyl]thiazol-2-yl]cyclohexyl]carbamate], under “Homo sapiens, 72 h”, the IC50 came out at 0.33 µM.

As to `CC(C)OC(=O)NC1CCC(c2ncc(-c3ccc(N4CCCO4)cc3S(=N)(=O)C3CC3)s2)CC1` (stereo not drawn) [Example 64, isopropyl trans-(4-(5-(2-(cyclopropanesulfonimidoyl)-4-(isoxazolidin-2-yl)phenyl)thiazol-2-yl)cyclohexyl)carbamate], the IC50 (Homo sapiens, 72 h) stood at 5.2 µM.

With `CC(C)OC(=O)Nc1ccc(-c2cnc([C@H]3CC[C@H](NC(=O)OC(C)C)CC3)s2)c(P2(=O)CCCC2)c1` [Example 27, isopropyl trans-N-[4-[2-[4-(isopropoxycarbonylamino)cyclohexyl]thiazol-5-yl]-3-(1-oxophospholan-1-yl)phenyl]carbamate], for the setting “Homo sapiens, 72 h”, the IC50 amounted to 0.68 µM.

As to `CC(C)OC(=O)Nc1ccc(-c2cnc(N3CCCC(NC(=O)OC(C)C)CC3)s2)c(S(=O)(=O)NC(C)(C)C)c1` (centres unmarked) [Example 11, isopropyl N-[3-(tert-butylsulfamoyl)-4-[2-[4-(isopropoxycarbonylamino)azepan-1-yl]thiazol-5-yl]phenyl]carbamate], the IC50 (Homo sapiens, 72 h) turned out to be 2.54 µM.

Turning to `CCP(=O)(CC)c1cc(NC(=O)OC(C)C)ccc1-c1cnc([C@H]2CC[C@H](NC(=O)OC(C)C)CC2)s1` [Example 23, isopropyl trans-N-[3-diethylphosphoryl-4-[2-[4-(isopropoxycarbonylamino)cyclohexyl]thiazol-5-yl]phenyl]carbamate], where the note is “Homo sapiens, 72 h”, the half-inhibitory concentration (IC50) was 3.93 µM.

Turning to `CC(C)OC(=O)N[C@H]1CC[C@H](c2ncc(-c3ccc(Nc4ccc(C(F)(F)F)cn4)cc3S(=N)(=O)C3CC3)s2)CC1` (some centres unmarked) [Example 82], the IC50 (Homo sapiens, 72 h) turned out to be 0.25 µM.

On to `Cc1ccc(Nc2ccc(-c3cnc(C4CCC(NC(=O)OC(C)C)CC4)s3)c(S(=O)(=O)C3CC3)c2)nc1` (stereo not drawn) [Example 77, isopropyl trans-(4-(5-(2-(cyclopropylsulfonyl)-4-((5-methylpyridin-2-ylamino)phenyl)thiazol-2-yl)cyclohexyl)carbamate], for which the concentration for half-maximal inhibition (IC50) (Homo sapiens, 72 h) was 0.004 µM.
